Strand notation (5' to 3'): a small letter for the sugar, then the base; units joined by * are phosphorothioate-linked, units joined directly phosphodiester-linked; [ ] holds rarer units or linkages, { } end groups; capitals alone tell only the bases. k = constrained ethyl (cEt); [5mC] = 5-methylcytosine; d = 2'-deoxy (DNA)
Tested on: Yap1 mRNA
Test: Dose-dependent inhibition of human Yap1 in A-431 cells (Example 8, 10,000 cells per well, RTS4814)
Format: cell-based
Conditions: free uptake, approximately 48 hours, RTS4814; for Yap1 mRNA, % UTC: A-431 cells, 10,000 cells per well; for IC50: A-431 cells, linear regression on log/linear plot
Outline: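 Yap1 mRNA, normalized to RIBOGREEN total RNA and expressed as % untreated control, was read with RTS4814 about 48 h after free-uptake oligonucleotide treatment of A-431 cells at 10,000 cells/well. IC50 derived by linear regression of log/linear data.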

Row | Substance | Yap1 mRNA, % UTC (31.3 nM) | Yap1 mRNA, % UTC (125.0 nM) | Yap1 mRNA, % UTC (500.0 nM) | Yap1 mRNA, % UTC (2000.00 nM) | IC50
1 | 1076386 (antisense kA*kG*kT*dT*dA*dT*dA*dA*d[5mC]*dA*dG*dT*dG*kT*kA*kA) [compound 1076386] | 61 % UTC | 30 % UTC | 11 % UTC | 5 % UTC | 40 nM
2 | 1076393 (antisense k[5mC]*kT*kT*dT*dA*d[5mC]*dT*dT*dA*d[5mC]*dT*dG*dG*kT*kG*kG) [compound 1076393] | 54 % UTC | 20 % UTC | 8 % UTC | 5 % UTC | < 20 nM
3 | 1076427 (k[5mC]*kA*kA*dA*dT*dT*dT*dA*d[5mC]*dT*dG*dA*dT*k[5mC]*kT*k[5mC]; antisense) [compound 1076427] | 75 % UTC | 30 % UTC | 9 % UTC | 4 % UTC | 100 nM
4 | 1074627 (DNA k[5mC]*k[5mC]*kT*dG*dT*dT*dA*dT*dG*dA*dA*d[5mC]*d[5mC]*k[5mC]*kT*kT; antisense) [compound 1074627] | 17 % UTC | 5 % UTC | 3 % UTC | 3 % UTC | < 20 nM
5 | 1075047 (antisense kT*kA*kA*dA*dA*dT*dT*dA*dG*dA*d[5mC]*dT*d[5mC]*k[5mC]*k[5mC]*k[5mC]) [compound 1075047] | 80 % UTC | 63 % UTC | 27 % UTC | 10 % UTC | 200 nM
6 | 1075689 (k[5mC]*kA*kA*d[5mC]*dT*dA*dT*dA*d[5mC]*dA*dA*dG*dG*k[5mC]*kA*kA; antisense) [compound 1075689] | 97 % UTC | 59 % UTC | 19 % UTC | 8 % UTC | 200 nM
7 | 1074852 (kA*kA*kT*dT*dG*dT*dT*dA*dT*dG*dA*dT*dA*kG*kG*k[5mC]; antisense) [compound 1074852] | 36 % UTC | 11 % UTC | 4 % UTC | 4 % UTC | < 20 nM
8 | 1076458 (k[5mC]*kT*kT*dA*dA*dT*dT*dA*dG*d[5mC]*d[5mC]*dT*d[5mC]*kA*kG*kT; antisense) [compound 1076458] | 88 % UTC | 52 % UTC | 23 % UTC | 10 % UTC | 200 nM
9 | 1075876 (antisense kG*kT*kA*dT*dT*dT*dA*dT*dG*dA*dT*dG*dA*kT*kT*k[5mC]) [compound 1075876] | 47 % UTC | 20 % UTC | 7 % UTC | 5 % UTC | < 20 nM
10 | 1075819 (kG*kT*kA*dT*dA*dT*d[5mC]*d[5mC]*dG*dT*dT*d[5mC]*dT*k[5mC]*kA*kT; antisense) [compound 1075819] | 48 % UTC | 18 % UTC | 7 % UTC | 5 % UTC | < 20 nM
11 | 1074535 (kG*kT*kA*dA*dT*dA*dG*d[5mC]*dT*d[5mC]*dT*dT*dT*k[5mC]*kT*kA; antisense) [compound 1074535] | 57 % UTC | 21 % UTC | 7 % UTC | 5 % UTC | < 20 nM
12 | 1075712 (kG*kA*k[5mC]*dG*d[5mC]*dG*dA*dA*dA*dT*dA*d[5mC]*dT*kT*kA*k[5mC]; antisense) [compound 1075712] | 69 % UTC | 38 % UTC | 13 % UTC | 7 % UTC | 100 nM
13 | 1074245 (antisense kA*kG*kA*dA*dG*dT*dA*dT*d[5mC]*dT*d[5mC]*dT*dG*kA*k[5mC]*k[5mC]) [compound 1074245] | 47 % UTC | 21 % UTC | 8 % UTC | 5 % UTC | < 20 nM
14 | 1076448 (k[5mC]*kT*kT*dA*dT*dA*dA*dT*dG*d[5mC]*dA*dA*dT*k[5mC]*k[5mC]*kT; antisense) [compound 1076448] | 61 % UTC | 19 % UTC | 4 % UTC | 3 % UTC | < 20 nM
15 | 1074409 (kG*kG*kA*dT*dT*dA*dA*dA*dG*dT*dA*dT*d[5mC]*kT*kT*kG; antisense) [compound 1074409] | 60 % UTC | 30 % UTC | 13 % UTC | 7 % UTC | 40 nM
16 | 1075968 (kT*kA*kT*dT*dT*dA*dA*dG*d[5mC]*d[5mC]*dA*dA*dA*k[5mC]*k[5mC]*kG; antisense) [compound 1075968] | 74 % UTC | 37 % UTC | 11 % UTC | 5 % UTC | 100 nM
17 | 1075744 (kT*kT*k[5mC]*dG*dG*dG*dT*dT*dA*dG*d[5mC]*dA*dG*kA*k[5mC]*kT; antisense) [compound 1075744] | 55 % UTC | 22 % UTC | 9 % UTC | 7 % UTC | < 20 nM
18 | 1076000 (k[5mC]*k[5mC]*kT*dA*dA*dT*dA*dT*dG*dA*d[5mC]*dT*d[5mC]*k[5mC]*kT*kT; antisense) [compound 1076000] | 71 % UTC | 31 % UTC | 10 % UTC | 5 % UTC | 100 nM
19 | 1075081 (antisense kG*kA*kT*dT*dA*d[5mC]*dA*dA*dA*dG*dA*d[5mC]*dA*kG*k[5mC]*k[5mC]) [compound 1075081] | 76 % UTC | 50 % UTC | 22 % UTC | 9 % UTC | 100 nM
20 | 1075146 (kG*kT*kA*dT*dT*dA*dA*dG*dG*dG*dA*dT*dT*kT*kT*k[5mC]; antisense) [compound 1075146] | 67 % UTC | 38 % UTC | 16 % UTC | 8 % UTC | 100 nM
21 | 1076330 (antisense kG*kA*kA*dT*dT*dA*dT*dA*d[5mC]*dT*dG*dG*d[5mC]*kT*kA*k[5mC]) [compound 1076330] | 57 % UTC | 31 % UTC | 9 % UTC | 4 % UTC | 40 nM
22 | 1076003 (kA*kA*kT*dT*dT*dA*dA*dT*dG*dG*d[5mC]*dT*dT*kG*k[5mC]*kA; antisense) [compound 1076003] | 60 % UTC | 28 % UTC | 17 % UTC | 11 % UTC | 40 nM
23 | 1074560 (DNA k[5mC]*k[5mC]*kA*dA*dT*d[5mC]*dG*dA*dG*dA*d[5mC]*dT*dT*kA*kA*kA) [compound 1074560] | 50 % UTC | 16 % UTC | 6 % UTC | 4 % UTC | < 20 nM
